# Test results reported in patent US4530931A, “8-Quinoline carbanilates for the inhibition of lipolysis” (priority 1984, dated 1985).
# Key:
# [1] = biological target: Canine cardiac lipases; experiment: Myocardial lipase assay; assay type: biochemical; details: for IC50: triolein emulsion, Tris pH 6.8, read-out: Lipase I50; for Lipase % Inh. at 100 μM: 100 μM compound, tested in duplicate
# Protocol: All compounds were dissolved in DMSO (final concentration 3.0%) and tested in duplicate at a concentration of 100 μM. Canine cardiac lipases were obtained by extracting washed heart membranes with buffer plus heparine and a small amount of Triton X-100 detergent. Because these enzymes are only active at an oil-water interface, the enzyme reaction is run in an oil-water emulsion that contains triolein substrate, Tris buffer (50mM, pH 6.8) and a small amount of bovine serum albumin (0.5%) added to stabilize the emulsion. A small amount of tritiated triolein was added to the unlabelled triolein substrate. Tritium-labelled oleic acid released by the lipases was extracted into hexane, separated from unreacted triolein and counted in a scintillation counter. Inhibitory agents reduce the amount of radioactivity appearing in the free fatty acid fraction isolated in the extraction procedure.
# [2] = system: rat adipocyte lipolysis; experiment: Rat adipocyte assay (epinephrine-stimulated lipolysis, glycerol release); assay type: cell-based; details: for Adipocyte % Inhib. at 3 μM: 3 μM compound; for inhibition at 100 µM: read-out: Adipocyte % Inhib. at 100 μM; for IC50: epinephrine 3 μM plus methylisobutylxanthine 10 μM, 1 hour at 37° C., read-out: Adipocyte I50
# Protocol: Abdominal fat pads were removed from male rats weighing 200-250 grams and placed in Krebs-bicarbonate buffer gassed with 95% O2 /5% CO2. The fat pads were digested with collagenase for 1 hour at 37° C., washed twice with Krebs-bicarbonate buffer and distributed among a set of 20 ml plastic counting vials. Two such vials received only buffer and cells (4 ml) but no agonists or antagonists. The remaining vials received epinephrine (3 μM) plus the phosphodiesterase inhibitor methylisobutylxanthine (10 μM). Test compounds were dissolved in DMSO or water to a concentration of […] and […] was added to the buffer plus cells in the counting vials. The final compound concentration for routine screening was 200 μM (final concentration of DMSO=1%).
# The cells were incubated for 1 hour at 37° C. under a 95% O2 /5% CO2 atmosphere. The incubation was stopped by placing the vials in crushed ice. The cells and medium were transferred to test tubes, centrifuged and the cell layer removed by aspiration. The aqueous phase was assayed for glycerol using the enzyme glycerol dehydrogenase.
# The glycerol dehydrogenase assay for glycerol depends on the enzyme catalyzed conversion of glycerol to glyceraldehyde and NAD to NADH. The assay can detect as little as 5-10 nanomoles of glycerol. The aqueous phase, following removal of cells, usually contained about 50 to 80 nanomoles of glycerol per 300 μl of assayed sample if no inhibitory activity was present. Samples from the control tubes (no agonist) usually contained 0-5 nanomoles of glycerol per 300 μl of sample.
# [3] = Rattus norvegicus, Adipocyte, 100 μM compound
Compound,Lipase % Inh. at 100 μM [1] [%],Adipocyte % Inhib. at 3 μM [2] [%],further results
2-methyl-8-quinolyl-4-methoxy carbanilate [No. 20],,5,IC50 [1]: 80 µM
"COc1ccc(CC(=O)Oc2cccc3cccnc23)cc1 [No. 30, 8-Quinoloyl-4-methoxyphenylAcetate]",,,"inhibition at 100 µM [2, 3]: 74%"
8-quinolyl-3-trifluoromethyl carbanilate [No. 14],63,76,
8-quinolyl-2-chloro carbanilate [No. 10],,,IC50 [1]: 200 µM; Adipocyte % Inhib. at 200 μM ([2]; 200 μM compound): 44%
"COc1cccc(NC(=O)Oc2cccc3cccnc23)c1 [No. 3, 8-quinolyl-3-methoxy carbanilate]",,,IC50 [1]: 18 µM
8-quninolyl-4-carbethoxy carbanilate [No. 7],75,,Adipocyte % Inhib. at 30 μM ([2]; 30 μM compound): 3%
8-quinolyl-4-bromo carbanilate [No. 17],56,7,
"COc1ccccc1NC(=O)Oc1cccc2cccnc12 [No. 2, 8-quinolyl-2-methoxy carbanilate]",,,IC50 [1]: 40 µM
8-quinolyl-2-methyl carbanilate [No. 13],1,,
8-quinolyl-3-chloro carbanilate [No. 9],,,IC50 [1]: 7300 µM; Adipocyte % Inhib. at 200 μM ([2]; 200 μM compound): 4%
4-Methoxyphenyl-8-quinolyl Urea [No. 6],70,,Adipocyte % Inhib. at 100 μM ([2]; 100 μM compound): 98%
2-methoxyphenyl-8-quinoyl carbamate [No. 5],72,,IC50 [2]: 5.8 µM
2-methyl-8-quinolyl carbanilate [No. 19],,,IC50 [1]: 48 µM; IC50 [2]: 10 µM
5-chloro-8-quinolyl carbanilate [No. 22],68,29,
8-quinolyl-4-chloro carbanilate [No. 8],,,IC50 [1]: 20 µM; IC50 [2]: 30 µM
8-quinolyl-3-methyl carbanilate [No. 12],41,5,
"8-quinolyl-2,5-dimethoxy carbanilate [No. 16]",7,40,
"COc1ccc(NC(=O)Oc2cccc3cccnc23)cc1 [No. 1, 8-Quinolyl-4-Methoxy Carbanilate]",,,IC50 [1]: 17 µM
"8-quinolyl-2,4-dimethoxy carbanilate [No. 15]",64,84,
8-quinolyl-4-methyl carbanilate [No. 11],58,52,

# Further lines, with some results ahead:
Lipase % Inh. at 100 μM [1] [%],Compound,Adipocyte % Inhib. at 3 μM [2] [%],further results
68,"5,7-dichloro-8-quinolyl carbanilate [No. 24]",,IC50 [2]: 0.2 µM
76,"8-(4-Methoxyphenylcarbamoyl)-quinolin)-5-sulfonic acid, Triethylamine [No. 23]",,IC50 [2]: 35 µM
7,COc1ccc(NC(=O)COc2cccc3cccnc23)cc1 [compound 25],,"inhibition at 100 µM [2, 3]: 26%"
69,8-quinolyl-4-methoxy phenethyl carbamate [No. 27],4,
56,(R)8-quinolyl alpha-methyl benzyl carbamate [No. 29],,Adipocyte % Inhib. at 200 μM ([2]; 200 μM compound): 28%
65,8-quinolyl-carbanilate [No. 18],,IC50 [2]: 0.2 µM
13,"COc1ccc(C(=O)Oc2cccc3cccnc23)cc1 [No. 31, 8-quinolyl-4-methoxy benzoate]",,"inhibition at 200 µM ([2]; Rattus norvegicus, Adipocyte, 200 μM compound, read-out: Adipocyte % Inhib. at 200 μM): 49%"
69,2-methyl-8-quinolyl-4-bromo carbanilate [No. 21],28,
74,8-Quinolyl-4-methoxy Acetanilide [No. 25],,IC50 [2]: 35 µM
83,(S)8-quinolyl alpha-methyl benzyl carbamate [No. 28],,Adipocyte % Inhib. at 200 μM ([2]; 200 μM compound): 14%
68,8-quinolyl-4-methoxy benzyl carbamate [No. 26],5,
